Experimental findings from patent US20170008928A1, “NOVEL PEPTIDES AND PEPTIDE DERIVATIVES AND USES THEREOF” (Novo Nordisk A/S, priority 2015, published 2017) are described below.

Read-outs that look alike come from different tables or passages of the source. Starred links: 1 amine or outer side, 2 acyl side, 3 side chain; linkers in the order of their positions; H or OH if unused. Non-standard residues stand in square brackets, D forms with d. Residues, ends and D or L forms follow the SMILES beside them. *: point of attachment. Phe(4-CH2SO3H) = N[C@@H](Cc1ccc(CS(=O)(=O)O)cc1)C(=O)O; C20 diacid = O=C(O)CCCCCCCCCCCCCCCCCCC(=O)*; sY = N[C@@H](Cc1ccc(OS(=O)(=O)O)cc1)C(=O)O; C18 diacid = O=C(O)CCCCCCCCCCCCCCCCC(=O)*; γGlu = O=C(O)[C@H](CCC(=O)[*:2])N[*:1]; 1Nal = N[C@@H](Cc1cccc2ccccc12)C(=O)O; C14 diacid = O=C(O)CCCCCCCCCCCCC(=O)*; NMeF = CN[C@@H](Cc1ccccc1)C(=O)O; dNMeD = CN[C@H](CC(=O)O)C(=O)O; Nle = CCCC[C@H](N)C(=O)O; AEEA = NCCOCCOCC(=O)O

For assay [1], the target named is T1, human cholecystokinin-2 receptor (CCK-2R) (Homo sapiens, UniProt P32239).
T1 construct: host or cells: 1321-N1 cells (plasma membranes prepared by Evotec AG Hamburg)
T1 sequence (P32239 1-447): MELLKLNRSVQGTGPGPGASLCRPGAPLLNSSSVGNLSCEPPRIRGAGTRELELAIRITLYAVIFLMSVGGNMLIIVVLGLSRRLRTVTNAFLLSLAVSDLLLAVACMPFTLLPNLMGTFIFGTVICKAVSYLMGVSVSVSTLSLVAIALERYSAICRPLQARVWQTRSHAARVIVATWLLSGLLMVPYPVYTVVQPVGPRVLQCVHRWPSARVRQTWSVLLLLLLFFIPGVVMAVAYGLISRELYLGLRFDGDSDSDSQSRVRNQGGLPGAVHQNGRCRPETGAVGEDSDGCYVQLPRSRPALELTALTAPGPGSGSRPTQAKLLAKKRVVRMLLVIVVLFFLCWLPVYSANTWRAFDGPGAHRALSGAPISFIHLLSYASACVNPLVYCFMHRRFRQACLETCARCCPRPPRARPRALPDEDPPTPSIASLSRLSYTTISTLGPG
In words: In vitro potency on CCK-2R, whole cell functional assay (IP1 accumulation, IP-One HTRF). The class given is cell-based. Background: Time-resolved FRET reads energy transfer from a long-lived donor to a nearby acceptor.

For assay [2], the target named is T2, human cholecystokinin-1 receptor (CCK-1R) (Homo sapiens, UniProt P32238).
T2 construct: host or cells: 1321-N1 cells
T2 sequence (P32238 1-428): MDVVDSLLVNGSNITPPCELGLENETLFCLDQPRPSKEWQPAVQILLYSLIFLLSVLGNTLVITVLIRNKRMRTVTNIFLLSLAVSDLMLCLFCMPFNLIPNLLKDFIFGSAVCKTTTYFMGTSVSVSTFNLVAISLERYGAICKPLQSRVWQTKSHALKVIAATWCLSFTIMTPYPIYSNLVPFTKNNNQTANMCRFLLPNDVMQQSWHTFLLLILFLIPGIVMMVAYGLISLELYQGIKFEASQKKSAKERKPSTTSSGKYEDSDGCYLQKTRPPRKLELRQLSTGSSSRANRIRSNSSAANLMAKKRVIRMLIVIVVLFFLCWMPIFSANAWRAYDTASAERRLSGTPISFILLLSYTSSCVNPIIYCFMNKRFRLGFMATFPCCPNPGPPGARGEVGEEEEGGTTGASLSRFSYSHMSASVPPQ
In words: In vitro receptor binding to CCK-1R, SPA displacement of [125I]-CCK-8s from plasma membranes.

Assay [3] has as its target T1, human cholecystokinin-2 receptor (CCK-2R). In words: In vitro receptor binding to CCK-2R, SPA displacement of [125I]-CCK-8s from plasma membranes. Background: In a radioligand displacement assay an active substance lowers the binding of a labelled ligand.
For assay [4], the target named is T2, human cholecystokinin-1 receptor (CCK-1R). Kind of assay: In vitro potency on CCK-1R, whole cell functional assay (IP1 accumulation, IP-One HTRF). The class given is cell-based.
[5] abbreviates: 1321-N1 cells stably expressing CCK-2R, IP1 accumulation, highest dose tested 1×10^6 pM, read-out: EC50 (CCK-2R).
The mark [6] stands for this setting: displacement of [125I]-CCK-8s, plasma membranes of 1321-N1 cells expressing CCK-1R, read-out: IC50 (CCK-1R).
[7] abbreviates: displacement of [125I]-CCK-8s, plasma membranes of 1321-N1 cells expressing CCK-2R, highest dose tested 1×10^7 pM, read-out: IC50 (CCK-2R).

Regarding `CCCC[C@H](NC(=O)[C@H](Cc1ccc(OS(=O)(=O)O)cc1)NC(=O)[C@H](CC(=O)O)NC(=O)COCCOCCNC(=O)COCCOCCNC(=O)CC[C@H](NC(=O)CCCCCCCCCCCCCCCCC(=O)O)C(=O)O)C(=O)NCC(=O)N[C@@H](Cc1c[nH]c2ccccc12)C(=O)N[C@@H](CCCC)C(=O)N(C)[C@H](CC(=O)O)C(=O)N[C@@H](Cc1cccc2ccccc12)C(N)=O` [Example 2, 2-[2-[2-[[2-[2-[2-[[(4S)-4-Carboxy-4-(17-carboxyheptadecanoylamino)butanoyl]amino]ethoxy]ethoxy]acetyl]amino]ethoxy]ethoxy]acetyl-Asp-sTyr-Nle-Gly-Trp-Nle-DMeAsp-1Nal-amide] ({C18 diacid-γGlu-AEEA-AEEA}-D[sY][Nle]GW[Nle][dNMeD][1Nal]-NH2), the concentration giving a half-maximal response (EC50) in assay [1] (setting [5]) turned out to be 180 nM. In addition, the 50% inhibitory concentration (IC50) turned out to be 0.13 nM in assay [2] (setting [6]) and 1000 nM in assay [3] (setting [7]).
For the molecule `CCCC[C@H](NC(=O)[C@H](Cc1ccc(CS(=O)(=O)O)cc1)NC(=O)[C@H](CC(=O)O)NC(=O)COCCOCCNC(=O)COCCOCCNC(=O)CC[C@H](NC(=O)CCCCCCCCCCCCCCCCC(=O)O)C(=O)O)C(=O)NCC(=O)N[C@@H](Cc1c[nH]c2ccccc12)C(=O)N[C@@H](CCCC)C(=O)N(C)[C@H](CC(=O)O)C(=O)N(C)[C@@H](Cc1ccccc1)C(N)=O` [Example 3, 2-[2-[2-[[2-[2-[2-[[(4S)-4-Carboxy-4-(17-carboxyheptadecanoylamino)butanoyl]amino]ethoxy]ethoxy]acetyl]amino]ethoxy]ethoxy]acetyl-Asp-Phe(4-sulfomethyl)-Nle-Gly-Trp-Nle-DMeAsp-MePhe-amide] ({C18 diacid-γGlu-AEEA-AEEA}-D[Phe(4-CH2SO3H)][Nle]GW[Nle][dNMeD][NMeF]-NH2), the results for the EC50 in assay [4] and in assay [1] were 0.31 nM and above 1000 nM, respectively. In addition, the IC50 in assay [2] is 0.26 nM; in assay [3], above 10000 nM.
Turning to `CCCC[C@H](NC(=O)[C@H](Cc1c[nH]c2ccccc12)NC(=O)CNC(=O)[C@H](CC(C)C)NC(=O)[C@H](Cc1ccc(OS(=O)(=O)O)cc1)NC(=O)[C@H](CC(=O)O)NC(=O)[C@H](CO)NC(=O)[C@H](CO)NC(=O)CNC(=O)[C@H](CO)NC(=O)[C@H](CO)NC(=O)CNC(=O)CCCCCCCCCCCCCCCCC(=O)O)C(=O)N(C)[C@H](CC(=O)O)C(=O)N(C)[C@@H](Cc1ccccc1)C(N)=O` [Example 29, 17-Carboxyheptadecanoyl-Gly-Ser-Ser-Gly-Ser-Ser-Asp-sTyr-Leu-Gly-Trp-Nle-DMeAsp-MePhe-amide] ({C18 diacid}-GSSGSSD[sY]LGW[Nle][dNMeD][NMeF]-NH2), the “CCK-1R selectivity (EC50 (CCK-2R)/EC50 (CCK-1R))” value in assay [4] (ratio of functional EC50 values, >1 = preference for CCK-1R) came out at 28. The IC50 in assay [2] (setting [6]) is 0.072 nM. The “CCK-1R binding selectivity (IC50 (CCK-2R)/IC50 (CCK-1R))” value in assay [2] (ratio of binding IC50 values, >1 = preference for CCK-1R) is listed as 5100.
In the case of `CCCC[C@H](NC(=O)[C@H](Cc1c[nH]c2ccccc12)NC(=O)CNC(=O)[C@H](CC(C)C)NC(=O)[C@H](Cc1ccc(CS(=O)(=O)O)cc1)NC(=O)[C@H](CC(=O)O)NC(=O)COCCOCCNC(=O)COCCOCCNC(=O)CC[C@H](NC(=O)CCCCCCCCCCCCC(=O)O)C(=O)O)C(=O)N(C)[C@H](CC(=O)O)C(=O)N(C)[C@@H](Cc1ccccc1)C(N)=O` [Example 34, 2-[2-[2-[[2-[2-[2-[[(4S)-4-Carboxy-4-(13-carboxytridecanoylamino)butanoyl]amino]ethoxy]ethoxy]acetyl]amino]ethoxy]ethoxy]acetyl-Asp-Phe(4-sulfomethyl)-Leu-Gly-Trp-Nle-DMeAsp-MePhe-amide] ({C14 diacid-γGlu-AEEA-AEEA}-D[Phe(4-CH2SO3H)]LGW[Nle][dNMeD][NMeF]-NH2), the EC50 in assay [4] (1321-N1 cells stably expressing CCK-1R, IP1 accumulation, average of min. three replicates, read-out: EC50 (CCK-1R)) is 0.21 nM; in assay [1] (setting [5]) it was above 1000 nM. Also, the IC50 in assay [3] (setting [7]) is above 10000 nM.
For `CCCC[C@H](NC(=O)[C@H](Cc1c[nH]c2ccccc12)NC(=O)CNC(=O)[C@H](CC(C)C)NC(=O)[C@H](Cc1ccc(CS(=O)(=O)O)cc1)NC(=O)[C@H](CC(=O)O)NC(=O)COCCOCCNC(=O)COCCOCCNC(=O)CC[C@H](NC(=O)CCCCCCCCCCCCCCCCCCC(=O)O)C(=O)O)C(=O)N(C)[C@H](CC(=O)O)C(=O)N(C)[C@@H](Cc1ccccc1)C(N)=O` [Example 35, 2-[2-[2-[[2-[2-[2-[[(4S)-4-Carboxy-4-(19-carboxynonadecanoylamino)butanoyl]amino]ethoxy]ethoxy]acetyl]amino]ethoxy]ethoxy]acetyl-Asp-Phe(4-sulfomethyl)-Leu-Gly-Trp-Nle-DMeAsp-MePhe-amide] ({C20 diacid-γGlu-AEEA-AEEA}-D[Phe(4-CH2SO3H)]LGW[Nle][dNMeD][NMeF]-NH2), the EC50 in assay [1] (setting [5]) is above 1000 nM. For the same molecule, the IC50 in assay [3] (setting [7]) was above 10000 nM.

For orientation: EC50 means the midpoint of the concentration-response curve. For orientation: IC50 means the concentration at which inhibition is half-maximal.
